Laboratory results: US11535607B2, “Isoindolines as HDAC inhibitors” (Valo Health, Inc., priority 2018, dated 2022)
In brackets after ≈: the same amount, converted by molar mass. Read-outs that look alike come from different tables or passages of the source.

Legend:
[1] = target: HDAC11 fused to Nanoluc luciferase (Homo sapiens (Human), UniProt Q96DB2); experiment: BRET target engagement cell assay
[2] = Kinetic solubility at pH 7.4; assay type: physicochemical; conditions: aqueous buffer, kinetic from dmso stock
full-length human HDAC11 [3] = target: T1, full-length human HDAC11 (Homo sapiens (Human), UniProt Q96DB2); experiment: HDAC11 deacetylase electrophoretic mobility shift assay (Nanosyn); assay type: biochemical; conditions: for IC50: mobility shift assay; for HDAC11 potency, in words: comparison with parent or lead compound
T1 sequence (Q96DB2 whole entry): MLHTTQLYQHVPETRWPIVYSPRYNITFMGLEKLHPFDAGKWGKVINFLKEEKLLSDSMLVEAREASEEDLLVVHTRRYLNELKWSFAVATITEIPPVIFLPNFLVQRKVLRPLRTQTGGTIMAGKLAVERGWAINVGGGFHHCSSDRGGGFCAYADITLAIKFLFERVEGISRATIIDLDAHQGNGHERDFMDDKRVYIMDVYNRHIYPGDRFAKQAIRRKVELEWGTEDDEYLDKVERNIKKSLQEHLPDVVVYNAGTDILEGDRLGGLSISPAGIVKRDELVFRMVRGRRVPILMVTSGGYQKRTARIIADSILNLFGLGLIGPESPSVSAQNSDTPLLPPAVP
Procedure: The measurement of HD AC 11 deacetylase activity was performed using an electrophoretic mobility shift assay by Nanosyn (Santa Clara, Calif.). Full length human recombinant HD AC 11 protein was expressed in baculoviral system and purified by affinity chromatography. The enzymatic reactions were assembled in 384 well plates in a total volume of 25 μL in a reaction buffer composing: 100 mM HEPES, pH 7.5, 25 mM KCl, 0.1% bovine serum albumin, 0.01% Triton X-100, 1% DMSO (from compounds), 2 μM of the fluorescently labeled peptide substrate and enzyme. The enzyme was added at a final concentration of 10 nM. The peptide substrate FAM-RHKK(tri-fluor-Ac)—NH2 was used. The compounds were tested at 12 concentrations spaced by 3× dilution intervals. Negative control samples (0%-inhibition in the absence of inhibitor) and positive control samples (100%-inhibition) were assembled in replicates of four in each assay plate. The reactions were incubated at 25° C. and quenched by the addition of 45 μL of termination buffer (100 mM HEPES, pH 7.5, 0.01% Triton X-100, 0.05% SDS).
The terminated assay plates were analyzed on LabChip® 3000 microfluidic electrophoresis instrument (Perkin Elmer/Caliper Life Sciences). The fluorescence intensity of the electrophoretically separated de-acetylated product and substrate peptide was measured. Activity in each sample was determined as the product to sum ratio (PSR): P/(S+P), where P is the peak height of the product peptide and S is the peak height of the substrate peptide. Percent inhibition (Pinh) is determined using the following equation: Pinh=(PSR0%−PSRinh)/(PSR0%−PSR100%)*100, where PSRinh, is the product sum ratio in the presence of inhibitor, PSR0% is the average product sum ration in the absence of inhibitor and PSR100% is the average product sum ratio in 100%-inhibition control samples. The IC50 values of inhibitors were determined by fitting the percent inhibition curves with 4 parameter dose-response model using XLfit 4 software.

HDAC11 = HDAC11 (Homo sapiens (Human), UniProt Q96DB2); experiment: Lipophilic efficiency (pIC50 HDAC11 - clogD7.4)
Sequence of HDAC11 (Q96DB2 whole entry): as above

[4] = In vitro intrinsic clearance after incubation with mouse liver microsomes; assay type: in vitro ADME; conditions: for microsomal stability, in words: comparison
full-length human HDAC11 [5] = target: T1, full-length human HDAC11; experiment: Probe binding HDAC11 time resolved fluorescence (TRF) assay; conditions: Table 2, read-out: HDAC11 IC50 Range
Procedure: The probe binding HDAC11 assay was performed using a time resolved fluorescence (TRF) assay format. Recombinant N-terminal GST tag full-length human HD AC 11 was expressed and purified from baculovirus in Sf9 insect cells (SignalChem, #H93-30G-1000). […] 4 μL of 2× probe and 2× anti-GST Terbium (Cisbio, #61GSTXLB) was added to assay plates followed by 4 μL of 2×HDAC11.
Data from HD AC 11 Assays were reported as percent inhibition (inh) compared with control wells based on the following equation: % inh=1−((FLU−AveLow)/(AveHigh−AveLow)) where FLU=measured time resolved fluorescence. AveLow=average time resolved fluorescence of no enzyme control (n=32). AveHigh=average time resolved fluorescence of DMSO control (n=32). IC50 values were determined by curve fitting of the standard 4 parameter logistic fitting algorithm included in the Activity Base software package: IDBS XE Designer Model205. Data is fitted using the Levenburg Marquardt algorithm.

HDAC6 = HDAC6 (Homo sapiens (Human), UniProt Q9UBN7); experiment: HDAC6 electrophoretic mobility shift assay; assay type: biochemical; conditions: for IC50: mobility shift assay
Sequence of HDAC6 (Q9UBN7 whole entry, species assumed): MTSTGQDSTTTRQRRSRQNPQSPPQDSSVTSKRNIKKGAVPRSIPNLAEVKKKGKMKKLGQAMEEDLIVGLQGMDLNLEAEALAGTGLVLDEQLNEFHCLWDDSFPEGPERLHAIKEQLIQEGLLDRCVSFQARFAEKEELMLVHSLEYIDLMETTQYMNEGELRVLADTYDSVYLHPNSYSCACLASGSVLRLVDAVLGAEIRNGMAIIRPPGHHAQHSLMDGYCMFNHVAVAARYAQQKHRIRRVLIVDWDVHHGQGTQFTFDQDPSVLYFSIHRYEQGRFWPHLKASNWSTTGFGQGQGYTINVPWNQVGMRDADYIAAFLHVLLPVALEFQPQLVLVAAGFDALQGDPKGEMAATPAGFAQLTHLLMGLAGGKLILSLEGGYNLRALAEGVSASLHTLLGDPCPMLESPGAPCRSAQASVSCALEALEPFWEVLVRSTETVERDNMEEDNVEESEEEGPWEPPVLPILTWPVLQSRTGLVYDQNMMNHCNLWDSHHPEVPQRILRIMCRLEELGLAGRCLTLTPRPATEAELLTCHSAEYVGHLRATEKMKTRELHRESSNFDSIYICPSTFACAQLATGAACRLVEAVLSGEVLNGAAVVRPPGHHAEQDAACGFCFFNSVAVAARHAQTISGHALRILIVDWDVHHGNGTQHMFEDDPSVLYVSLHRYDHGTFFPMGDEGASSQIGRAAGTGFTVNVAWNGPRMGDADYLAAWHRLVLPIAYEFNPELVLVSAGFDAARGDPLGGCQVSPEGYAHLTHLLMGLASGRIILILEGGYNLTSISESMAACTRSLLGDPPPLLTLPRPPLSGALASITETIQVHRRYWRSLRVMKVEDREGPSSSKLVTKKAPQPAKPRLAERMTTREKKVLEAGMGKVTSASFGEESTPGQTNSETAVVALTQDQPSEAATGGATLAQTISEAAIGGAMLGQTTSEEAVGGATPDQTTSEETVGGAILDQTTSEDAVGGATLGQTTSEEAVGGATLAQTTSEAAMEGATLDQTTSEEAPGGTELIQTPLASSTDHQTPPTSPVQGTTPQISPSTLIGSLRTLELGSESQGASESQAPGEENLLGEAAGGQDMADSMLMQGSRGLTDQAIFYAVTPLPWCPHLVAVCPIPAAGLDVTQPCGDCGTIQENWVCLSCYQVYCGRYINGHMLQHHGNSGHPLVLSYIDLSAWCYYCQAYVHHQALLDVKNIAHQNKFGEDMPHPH

[6] = read-out: HDAC11 BRET IC50, BRET cell assay, Table 6
[7] = pIC50 HDAC11 - clogD7.4, Table 6
[8] = Table 3, mean of at least two runs, read-out: HDAC 11 IC50
[9] = Table 3, mean of at least two runs, read-out: HDAC 6 IC50
[10] = pIC50 HDAC11 - clogD7.4, Table 5
[11] = pIC50 HDAC11 - clogD7.4, Table 4

Sequence of HDAC11 fused to Nanoluc luciferase (Q96DB2 whole entry, the tested form may be a part): as the sequence (Q96DB2 whole entry) above

Compound	solubility [2] [µM]	IC50 (full-length human HDAC11 [3]; Table 6, read-out: HDAC11 IC50) [nM]	LipE (HDAC11; [7])	microsomal CLint ([4]; Table 6) [µL/min/mg]	IC50 (full-length human HDAC11 [5]) [nM]	HDAC11 potency, in words (full-length human HDAC11 [3])	microsomal stability, in words [4]	IC50 (full-length human HDAC11 [3]; Table 5, read-out: HDAC11 IC50) [nM]	LipE (HDAC11; [10])	microsomal CLint ([4]; Table 5) [µL/min/mg]	other results
CC1(C)c2cccc(C(=O)NO)c2CN1c1cnc(C(F)(F)F)nc1 [Compound 22-7, N-hydroxy-1,1-dimethyl-2-(2-(trifluoromethyl)pyrimidin-5-yl)isoindoline-4-carboxamide]	> 55	< 500	++ (indicates 5.5<LipE≤6.5)	< 50	< 500						IC50 [1, 6]: < 500 nM
O=C(NO)c1ccc2c(c1)CCN(c1nc3ccccc3[nH]1)C2 [Compound 50-5]						loss of HD AC 11 potency					IC50 (full-length human HDAC11 [3]; [8]): > 2000 nM; IC50 (HDAC6; [9]): < 500 nM
O=C(NO)c1cccc2c1CN(c1nc3ccccc3[nH]1)CC2 [Compound 50-6]											IC50 (full-length human HDAC11 [3]; [8]): > 2000 nM; loss in activity vs. HDAC11 (full-length human HDAC11 [3]; relative to initial lead 50-4): 2 fold; IC50 (HDAC6; [9]): < 500 nM; loss in potency vs. HDAC6 (HDAC6; relative to initial lead 50-4): 20 fold
CC1(C)c2cccc(C(=O)NO)c2CN1c1ccc(C(F)(F)F)cn1 [Compound 22-2, N-hydroxy-1,1-dimethyl-2-(5-(trifluoromethyl)pyridin-2-yl)isoindoline-4-carboxamide]	≤ 30	< 500	++ (indicates 5.5<LipE≤6.5)	< 50	< 500						IC50 [1, 6]: < 500 nM
CC1(C)c2cccc(C(=O)NO)c2CN1c1nc2ccc(C(F)(F)F)cc2[nH]1 [Compound 17-1, N-hydroxy-1,1-dimethyl-2-(6-(trifluoromethyl)-1H-benzo[d]imidazol-2-yl)isoindoline-4-carboxamide]	30 to 55 (≈ 11.7 to 21.5 µg/mL)	< 500	++ (indicates 5.5<LipE≤6.5)	< 50	< 500	retained the potency	significant increase in stability				
O=C(NO)c1cccc2c1CN(c1nc3ccccc3s1)C2 [Compound 7-4, 2-(benzo[d]thiazol-2-yl)-N-hydroxyisoindoline-4-carboxamide]					< 500	improved potency	significant loss of microsomal stability	< 500	+ (indicates LipE≤5.5)	> 100	
CC1(C)c2cccc(C(=O)NO)c2CN1c1nc2cc(C(F)(F)F)ccc2o1 [Compound 18-1, N-hydroxy-1,1-dimethyl-2-[5-(trifluoromethyl)-1,3-benzoxazol-2-yl]-2,3-dihydro-1H-isoindole-4-carboxamide]	≤ 30	< 500	++ (indicates 5.5<LipE≤6.5)	< 50	< 500						
Cl.O=C(NO)c1cccc2c1CN(c1ccc3ccccc3n1)C2 [Compound 7-2, N-hydroxy-2-(quinolin-2-yl)isoindoline-4-carboxamide hydrochloride]					< 500	improved potency	significant loss of microsomal stability	< 500	+ (indicates LipE≤5.5)	51 to 100	
O=C(NO)c1cccc2c1CCN(c1nc3ccccc3[nH]1)C2 [Compound 50-2]						only modest HDAC11 activity					IC50 (full-length human HDAC11 [3]; [8]): 510 to 2000 nM; IC50 (full-length human HDAC11 [3]; Table 4, read-out: HDAC11 IC50): > 1000 nM; LipE (HDAC11; [11]): + (indicates LipE≤5.5); microsomal CLint ([4]; Table 4, read-out: m-CL-int): < 50 µL/min/mg; IC50 (HDAC6; [9]): > 2000 nM; IC50 (HDAC6; Table 4, read-out: HDAC6 IC50): > 1000 nM; HDAC6 potency, in words (HDAC6; text comparison with lead 50-4): no significant HDAC6 potency
O=C(NO)c1ccc2c(c1)CN(c1nc3ccccc3[nH]1)CC2 [Compound 50-4]											IC50 (full-length human HDAC11 [3]; [8]): > 2000 nM; IC50 (HDAC6; [9]): < 500 nM
O=C(NO)c1cccc2c1CN(c1nc3ccc(C(F)(F)F)cc3[nH]1)C2 [Compound 12-1, N-hydroxy-2-(6-(trifluoromethyl)-1H-benzo[d]imidazol-2-yl)isoindoline-4-carboxamide]					< 500	significant increase in both potency and LipE	loss of microsomal stability	< 500	++ (indicates 5.5<LipE≤6.5)	> 100	
CC1(C)c2cccc(C(=O)NO)c2CN1c1ccc(C(F)(F)F)nc1 [Compound 22-3, N-hydroxy-1,1-dimethyl-2-(6-(trifluoromethyl)pyridin-3-yl)isoindoline-4-carboxamide]	30 to 55 (≈ 10.5 to 19.3 µg/mL)	< 500	++ (indicates 5.5<LipE≤6.5)	< 50	< 500						IC50 [1]: < 20 nM; IC50 [1, 6]: < 500 nM
Cl.O=C(NO)c1cccc2c1CN(c1nc3c([nH]1)CCCC3)C2 [Compound 1-4, N-hydroxy-2-(4,5,6,7-tetrahydro-1H-benzo[d]imidazol-2-yl)isoindoline-4-carboxamide hydrochloride]					> 1000	loss of potency	loss of potency and microsomal stability	> 1000	++ (indicates 5.5<LipE≤6.5)	> 100	
O=C(NO)c1cccc2c1CN(c1ccc(C(F)(F)F)cn1)C2 [Compound 45-1, N-hydroxy-2-(5-(trifluoromethyl)pyridin-2-yl)isoindoline-4-carboxamide]					< 500	improved potency	significant loss of microsomal stability	< 500	++ (indicates 5.5<LipE≤6.5)	51 to 100	
O=C(NO)c1cccc2c1CN(c1nc3ccccc3o1)C2 [Compound 15-1, 2-(benzo[d]oxazol-2-yl)-N-hydroxyisoindoline-4-carboxamide]					< 500	improved potency	significant loss of microsomal stability	< 500	+++ (indicates a LipE>6.5)	> 100	
Cc1nc(N2Cc3cccc(C(=O)NO)c3C2)[nH]c1C.Cl [Compound 1-2, 2-(4,5-dimethyl-1H-imidazol-2-yl)-N-hydroxyisoindoline-4-carboxamide hydrochloride]					> 1000	loss of potency	loss of potency and microsomal stability	> 1000	++ (indicates 5.5<LipE≤6.5)	51 to 100	
CC1(C)c2cccc(C(=O)NO)c2CN1c1ncc(C(F)(F)F)cn1 [Compound 22-6, N-hydroxy-1,1-dimethyl-2-(5-(trifluoromethyl)pyrimidin-2-yl)isoindoline-4-carboxamide]	30 to 55 (≈ 10.6 to 19.4 µg/mL)	< 500	++ (indicates 5.5<LipE≤6.5)	< 50	< 500						IC50 [1, 6]: < 500 nM
O=C(NO)c1cccc2c1CCN(c1nc3ccccc3[nH]1)CC2 [Compound 50-3]											IC50 (full-length human HDAC11 [3]; Table 4, read-out: HDAC11 IC50): < 500 nM; increase in potency against HDAC11 (full-length human HDAC11 [3]; relative to the tetrahydroisoquinoline core): > 10 fold; LipE (HDAC11; [11]): + (indicates LipE≤5.5); microsomal CLint ([4]; Table 4, read-out: m-CL-int): > 100 µL/min/mg; IC50 (HDAC6; Table 4, read-out: HDAC6 IC50): > 1000 nM
O=C(NO)c1cccc2c1CN(c1nc3ccccc3[nH]1)C2 [Compound 1-6, 2-(1H-benzo[d]imidazol-2-yl)-N-hydroxyisoindoline-4-carboxamide]							significant microsomal stability				microsomal CLint ([4]; Table 4, read-out: m-CL-int): < 50 µL/min/mg; m-CLint ([4]; Table 5): +++ (indicates a m-CLint below 50 μL/min/mg); IC50 (HDAC6; Table 4, read-out: HDAC6 IC50): > 1000 nM
